{"source": "patent US20010004460A1", "about": "“PROCESS FOR THE PREPARATION OF RICE SEED FOR SOWING” (priority 1995, published 2001)", "key": {"[1]": {"test_system": "rice seeds", "settings": "in vivo", "description": "Seed was tested for germination in an incubator and also flown onto a flooded field under standard agricultural practices."}, "[2]": {"test_system": "rice seeds", "assay": "Seedling growth of pregerminated rice seed coated with gibberellic acid, sown by plane in flooded field"}, "[3]": {"test_system": "rice seeds", "assay": "Stand establishment of pregerminated rice seed treated with mancozeb slurry, flown onto flooded fields", "assay_type": "in vivo", "settings": "slurry at 19-22 fluid ounces per hundred pounds of seed"}}}
{"compound": "N#Cc1nn(-c2c(Cl)cc(C(F)(F)F)cc2Cl)c(N)c1[S+]([O-])C(F)(F)F", "note": "(stereo not drawn) [fipronil, 5-amino-1-(2,6-dichloro-4-trifluoromethylphenyl)-4-trifluoromethylsulfinyl-3-cyanopyrazole]", "values": [{"measurement": "appearance of pregerminated seeds after machine mixing", "setting": "[1]", "result": "appeared undamaged"}, {"measurement": "stand establishment", "setting": "[1]", "result": "the same as untreated seed"}]}
{"compound": "C=C1C[C@]23C[C@@]1(O)CC[C@H]2[C@@]12C=C[C@H](O)[C@@](C)(C(=O)O1)[C@H]2[C@@H]3C(=O)O", "note": "[gibberellic acid]", "values": [{"measurement": "size of root relative to shoot", "setting": "[2]; 3 to 10 days after sowing", "result": "approximately the same size"}, {"measurement": "resistance of seedlings to wind", "setting": "[2]; 3 to 10 days after sowing, located in the soil at a depth of 0 to 2 mm", "result": "highly resistant to wind"}, {"measurement": "appearance of germinated seeds after machine mixing", "setting": "[2]; […], radicles 1 to 8 mm", "result": "appeared undamaged"}]}
{"compound": "[[1,2-ethanediylbis[carbamodithioato]](2-)]manganese mixture with [[1,2-ethanediylbis [carbamodithioato]](2—)]zinc [mancozeb]", "values": [{"measurement": "stand of rice plants established", "setting": "[3]", "result": "acceptable stand"}]}
